Experimental data as given in US8318223B2, “Method for producing modified milk” (Ajinomoto Co., Inc., priority 2008, dated 2012).
Where two headings read alike, the source gives them in different places.

Molecular target: T1, PG (Chryseobacterium proteolyticum, UniProt Q9AQQ8)
T1 construct: made in house
T1 sequence (Q9AQQ8 136-320): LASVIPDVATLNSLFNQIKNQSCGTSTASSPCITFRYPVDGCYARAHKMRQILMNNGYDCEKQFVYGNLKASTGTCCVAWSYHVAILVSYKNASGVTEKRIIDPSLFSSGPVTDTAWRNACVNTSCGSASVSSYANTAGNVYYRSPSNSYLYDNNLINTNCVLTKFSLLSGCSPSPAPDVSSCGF
Format: biochemical
Method: Calcium chelating materials were added to LTLT sterilized milk (66° C., 30 minutes: Takanashi low temperature sterilized milk) properly. The reactivity of PG with each milk sample was measured as follows. To each milk sample was added 0.4 U/ml (corresponding to about 12 u per 1 g of milk protein) of PG (a purified product described in Experimental Example 1) and incubated at 50° C. for 60 minutes. The enzyme reaction was ceased by adding 12% TCA the amount of which is the same as the reacting solution and centrifuged (12,000 rpm, 5° C., 5 minutes) to measure the amount of ammonium in the supernatant using an ammonium quantitative measurement kit, F-kit (Roche).
Alkaline materials were added to LTLT sterilized milk (66° C., 30 minutes: Takanashi low temperature sterilized milk) properly so as to adjust the pH 7 to 8.4. The reactivity of PG with each milk sample was measured as in Example 1.
Glutathione or cysteine (Nacalai Tesque, Inc.) as a thiol-type reducing agent was added to LTLT sterilized milk (66° C., 30 minutes: Takanashi low temperature sterilized milk) properly. The reactivity of PG to each milk was measured as in Example 1. […] By the same manner, the reactivity of PG to milk was measured by adding glutathione yeast extract (AROMILD UG8, Kohjin Co., Ltd.) to milk at different concentrations.

[1] = alkaline additive 0.20% in LTLT milk, control (pH 6.67) 13.6
[2] = alkaline additive 0.25% in LTLT milk, control (pH 6.67) 13.6
[3] = alkaline additive 0.30% in LTLT milk, control (pH 6.67) 13.6
[4] = alkaline additive […] in LTLT milk, control (pH 6.67) 13.6
[5] = additive 0.4% in LTLT milk, PG 0.4 U/ml, 50° C., 60 minutes, control 22.1
[6] = additive 0.5% in LTLT milk, PG 0.4 U/ml, 50° C., 60 minutes, control 22.1

N=C(N)NCCC[C@H](N)C(=O)O [Arg (amino acid), arginine]
PG reactivity (%) [1]: 54.1%
PG reactivity (%) [2]: 67%
PG reactivity (%) [3]: 76.2%
PG reactivity (%) (alkaline additive 0.40% in LTLT milk, control (pH 6.67) 13.6): 75%

O=C([O-])CN(CCN(CC(=O)[O-])CC(=O)[O-])CC(=O)[O-].[Na+].[Na+].[Na+].[Na+] [EDTA, tetrasodium ethylenediaminetetraacetate]
PG reactivity (%) (additive 20 mM in LTLT milk, PG 0.4 U/ml, 50° C., 60 minutes, control 22.1): 55.9%

O=C([O-])[O-].[K+].[K+] [Potassium carbonate]
PG reactivity (%) (alkaline additive 0.13% in LTLT milk, control (pH 6.67) 13.6): 62.5%

O=C([O-])[O-].[Na+].[Na+] [Sodium carbonate]
PG reactivity (%) (alkaline additive 0.10% in LTLT milk, control (pH 6.67) 13.6): 61.7%
PG reactivity (%) [1]: 65%
PG reactivity (%) [4]: 72.7%

O=C([O-])O.[Na+] [Sodium hydrogen carbonate]
PG reactivity (%) [3]: 58.1%
PG reactivity (%) (alkaline additive 1.00% in LTLT milk, control (pH 6.67) 13.6): 57.8%

O=C([O-])CC(O)(CC(=O)[O-])C(=O)[O-].[Na+].[Na+].[Na+] [Trisodium citrate]
PG reactivity (%) (additive 0.2% in LTLT milk, PG 0.4 U/ml, 50° C., 60 minutes, control 22.1): 40.5%
PG reactivity (%) [5]: 47.3%
PG reactivity (%) [6]: 42.8%

O=P([O-])([O-])[O-].[Na+].[Na+].[Na+] [Trisodium phosphate]
PG reactivity (%) [1]: 65.8%
PG reactivity (%) [2]: 72%
PG reactivity (%) [4]: 54.9%

sodium γ-polyglutamate [γ-PGA]
PG reactivity (%) [5]: 49.8%
PG reactivity (%) [6]: 58.1%
PG reactivity (%) (additive 0.75% in LTLT milk, PG 0.4 U/ml, 50° C., 60 minutes, control 22.1): 79.2%
PG reactivity (%) (additive 1% in LTLT milk, PG 0.4 U/ml, 50° C., 60 minutes, control 22.1): 96.1%
